From patent US12331343B2, “FAMIN assay methods” (Cambridge Enterprise Limited, priority 2018, dated 2025) come the findings set out here.

Data set [1] has as its target T1, recombinant human FAMIN (Homo sapiens, UniProt Q8IV20).
T1 construct: twin Strep-tag (followed by short linker and TEV cleavage site) (N, cleaved yes); made in house; host or cells: HEK293T
T1 sequence (Q8IV20 1-430): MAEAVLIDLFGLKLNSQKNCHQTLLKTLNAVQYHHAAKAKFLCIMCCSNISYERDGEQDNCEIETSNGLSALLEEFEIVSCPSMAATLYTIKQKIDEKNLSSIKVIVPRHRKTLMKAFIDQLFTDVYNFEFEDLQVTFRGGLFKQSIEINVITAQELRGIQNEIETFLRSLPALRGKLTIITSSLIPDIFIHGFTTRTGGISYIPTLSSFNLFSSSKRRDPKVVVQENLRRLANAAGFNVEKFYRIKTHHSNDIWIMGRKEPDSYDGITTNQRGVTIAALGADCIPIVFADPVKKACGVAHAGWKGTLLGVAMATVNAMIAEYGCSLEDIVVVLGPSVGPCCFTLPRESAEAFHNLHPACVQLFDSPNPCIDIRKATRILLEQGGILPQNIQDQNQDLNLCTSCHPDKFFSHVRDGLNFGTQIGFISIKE
The data set is described as follows: adenosine deaminase activity of FAMIN (adenosine to inosine, LC-MS). Conditions: 10 μg recombinant FAMIN, 10 μM adenosine in PBS, 1 h at 37° C. (FIG. 5A). In kind it is biochemical.

Data set [2] deals with T1, recombinant human FAMIN. Kind of data set: adenosine phosphorylase activity of FAMIN (adenosine to adenine and ribose-1-phosphate, LC-MS). The format is biochemical. As to conditions: 10 μg recombinant FAMIN, 10 μM adenosine in PBS, 1 h at 37° C. (FIG. 5B, 5C). On the procedure: (§1) FIGS. 5B and 5C show levels of adenine and ribose-1-phosphate ([…]) in the reaction described in FIG. 5A. […] For enzyme kinetic assays a further chromatographic approach was used to allow for analysis of all substrates and products using a single assay. A Waters BEH C8 column was used (100×2.1 mm, 1.7 μm) with a weak mobile phase (A) of aqueous 10 mM ammonium acetate with 0.1% ammonia and a strong mobile phase (B) of acetonitrile. For gradient elution mobile phase B was held at 0% for 1.6 min, followed by a linear gradient to 30% B over 4.0 minutes, a further increase to 90% over 1 min, and a hold at 90% B for 1 min, with re-equilibration for 1.5 minutes giving a total run time of 6.5 minutes. The flow rate was 0.5 mL/min and the injection volume was 2 μL. The needle wash used was 4:1 water:acetonitrile. Putative enzymatic function of recombinant human strep-tagged FAMIN was investigated against aqueous HepG2 metabolite extracts (dried, Folch extracted from 5×10^6 cells) or nucleoside substrates at indicated concentrations and detected using HPLC-MS as described above. Unless otherwise indicated in the figure legends, HEK293T cell-expressed protein was used for all assays. The reaction mixture (final volume 100 μL) consisted of 10 μg of recombinant protein and 10 μM nucleoside substrate in Dulbecco's PBS (Thermo Fisher), pH 7.4 unless otherwise indicated. The samples were incubated at 37° C. for 1 h and then quenched with ×5 volume of ice-cold methanol. Samples were centrifuged at 21,000 g for 5 min transferred to fresh tubes and then dried down prior to analysis as described above.

Data set [3] concerns the target T1, recombinant human FAMIN. Kind of data set: specificity of FAMIN activity towards purine and pyrimidine nucleosides (substrate consumption, LC-MS). The format is biochemical. Conditions: pure substrate with 10 μg recombinant FAMIN in 100 μl PBS, pH 7.4, 1 h at 37° C. (FIG. 2A, 2N, 2R, 2S). An excerpt: Peak intensity of each extracted chromatogram per given m/z value normalised to maximum level of 100. Controls as indicated include reaction buffer (PBS), protein elution buffer as described in methods, recombinant FAMIN without substrate or protein buffer with adenosine substrate. […] FIGS. 2C, 2D, 2E, and 2F show representative chromatograms and mass spectra for (2C) adenine, (2D) hypoxanthine, (2E) inosine and (2F) ribose-1-phosphate. Upper panels: (2C-E) extracted positive ion chromatogram showing injection of (2C) 1 μM standard of adenine; (2D) 5 μM standard of hypoxanthine; (2E) 5 μM standard of inosine on a BEH C8 column; (2F) extracted negative ion chromatogram showing injection of a 5 μg/mL standard of ribose-1-phosphate on a BEH amide HILIC column. All measurements performed using the Q Exactive Orbitrap and extracted at m/z values of (2C) adenine [M+H]^+: 136.0617, (2D) hypoxanthine [M+H]^+: 137.0457, (2E) inosine [M+H]^+: 269.0877 and (2F) ribose-1-phosphate [M−H]^−: 229.0119 at a tolerance of 2 ppm. Middle panels: Corresponding extracted chromatograms of a representative sample (10 μg recombinant FAMIN^254I incubated with 10 μM adenosine for 1 h in 100 μl phosphate-buffered saline). Peaks at indicated retention times perfectly match those of adenine, hypoxanthine, inosine and ribose-1-phosphate standards. Lower panels: high resolution Fourier transform mass spectrometry (FTMS) mass spectrum of the representative FAMIN^254I incubated sample during the peaks putatively identified as (2C) adenine, (2D) hypoxanthine, (2E) inosine, or (2F) ribose-1-phosphate. Nominal m/z values of (2C) 136, (2D) 137, (2E) 269 and (2F) 229, respectively, were selectively targeted and fragmented using a higher-energy collision dissociation (HCD) collision voltage of 25 eV to give the fragments shown. […] Calculated from absolute levels of hypoxanthine and inosine quantified using ^13C2, ^15N1-hypoxanthine and ^15N4-inosine internal standards, and adenine levels estimated using adenine external standard. […] (SAM; S-adenosylmethionine; MTA, S-methyl-5′-thioadenosine; 2′-dA, 2′-deoxyadenosine; n=3, mean±S.E.M.). […] FIGS. 2P and 2Q show on the left FAMIN catalysed enzymatic reactions. On the right they show levels of guanine or hypoxanthine and ribose-1-phosphate in reactions containing 100 μM guanosine or inosine and recombinant FAMIN or buffer control in 100 μl after 1 h at 37° C. (n=3, mean±S.E.M.). […] On the lower panels adenine, 2′-deoxyinosine, hypoxanthine and deoxyribose-1-phosphate levels following incubation of 10 μg recombinant FAMIN or buffer control with 10 μM 2′deoxyadenosine for 1 h in 100 μl PBS (n=3 each, mean±S.E.M.). […] All metabolite level data in this figure measured as area under the chromatographic peak, normalised for total ion content. *P<0.05 (unpaired, two-tailed Student's t-test).
Putative enzymatic function of recombinant human strep-tagged FAMIN was investigated against aqueous HepG2 metabolite extracts (dried, Folch extracted from 5×10^6 cells) or nucleoside substrates at indicated concentrations and detected using HPLC-MS as described above. Unless otherwise indicated in the figure legends, HEK293T cell-expressed protein was used for all assays. The reaction mixture (final volume 100 μL) consisted of 10 μg of recombinant protein and 10 μM nucleoside substrate in Dulbecco's PBS (Thermo Fisher), pH 7.4 unless otherwise indicated. The samples were incubated at 37° C. for 1 h and then quenched with ×5 volume of ice-cold methanol. Samples were centrifuged at 21,000 g for 5 min transferred to fresh tubes and then dried down prior to analysis as described above.

Data set [4] deals with T1, recombinant human FAMIN. Kind of data set: purine nucleoside phosphorylase activity of FAMIN (inosine to hypoxanthine and ribose-1-phosphate, LC-MS). In kind it is biochemical. Conditions: 10 μg recombinant FAMIN, 10 μM inosine in PBS, 1 h at 37° C. (FIG. 5D, 5E). The procedure: as §1, with “The samples were incubated at 37° C. for 1 h and then quenched with ×5 volume of ice-cold methanol. Samples were centrifuged at 21,000 g for 5 min transferred to fresh tubes and then dried down prior to analysis as described above.” left out

Substrate in data set [5]: Nc1ncnc2c1ncn2[C@@H]1O[C@H](CO)[C@@H](O)[C@H]1O
The data set is described as follows: adenosine phosphorylase activity of FAMIN (adenosine to adenine and ribose-1-phosphate, LC-MS). In kind it is biochemical, human. As to conditions: other: 500 nM to 100 μM adenosine, adenine production, 1 h at 37° C., pH 7.4 (FIG. 3A). On the procedure:
as §1, with “The samples were incubated at 37° C. for 1 h and then quenched with ×5 volume of ice-cold methanol. Samples were centrifuged at 21,000 g for 5 min transferred to fresh tubes and then dried down prior to analysis as described above.” left out

Substrate in data set [6]: OC[C@H]1O[C@@H](n2cnc3c(O)ncnc32)[C@H](O)[C@@H]1O
Kind of data set: purine nucleoside phosphorylase activity of FAMIN (inosine to hypoxanthine and ribose-1-phosphate, LC-MS). As to conditions: other: 500 nM to 100 μM inosine, hypoxanthine production, 1 h at 37° C., pH 7.4 (FIG. 3A). The format is biochemical, human. The procedure:
as §1, with “The samples were incubated at 37° C. for 1 h and then quenched with ×5 volume of ice-cold methanol. Samples were centrifuged at 21,000 g for 5 min transferred to fresh tubes and then dried down prior to analysis as described above.” left out

Substrate in data set [7]: Nc1ncnc2c1ncn2[C@@H]1O[C@H](CO)[C@@H](O)[C@H]1O
The data set is described as follows: adenosine deaminase activity of FAMIN (adenosine to inosine, LC-MS). The format is biochemical, human. As to conditions: other: 500 nM to 100 μM adenosine, inosine production, 1 h at 37° C., pH 7.4 (FIG. 3A).

Substrate in data set [8]: CSC[C@H]1O[C@@H](n2cnc3c(N)ncnc32)[C@H](O)[C@@H]1O
The data set is described as follows: S-methyl-5'-thioadenosine phosphorylase activity of FAMIN (MTA to adenine, LC-MS). The format is biochemical, human. As to conditions: other: 500 nM to 100 μM MTA, adenine production, 1 h at 37° C., pH 7.4 (FIG. 3A). On the procedure:
Activity measured as inosine, hypoxanthine and adenine production following incubation with protein for 1 h at 37° C. at pH 7.4.
For enzyme kinetic assays a further chromatographic approach was used to allow for analysis of all substrates and products using a single assay. A Waters BEH C8 column was used (100×2.1 mm, 1.7 μm) with a weak mobile phase (A) of aqueous 10 mM ammonium acetate with 0.1% ammonia and a strong mobile phase (B) of acetonitrile. For gradient elution mobile phase B was held at 0% for 1.6 min, followed by a linear gradient to 30% B over 4.0 minutes, a further increase to 90% over 1 min, and a hold at 90% B for 1 min, with re-equilibration for 1.5 minutes giving a total run time of 6.5 minutes. The flow rate was 0.5 mL/min and the injection volume was 2 μL. The needle wash used was 4:1 water:acetonitrile.
Putative enzymatic function of recombinant human strep-tagged FAMIN was investigated against aqueous HepG2 metabolite extracts (dried, Folch extracted from 5×10^6 cells) or nucleoside substrates at indicated concentrations and detected using HPLC-MS as described above. Unless otherwise indicated in the figure legends, HEK293T cell-expressed protein was used for all assays. The reaction mixture (final volume 100 μL) consisted of 10 μg of recombinant protein and 10 μM nucleoside substrate in Dulbecco's PBS (Thermo Fisher), pH 7.4 unless otherwise indicated. […]

As for `CCCCCC[C@@H]([C@@H](C)O)n1cnc2c(N)ncnc21` (racemic) [EHNA, erythro-9-(2-hydroxy-3-nonyl)adenine], the “effect on adenosine deaminase activity of FAMIN (levels of inosine)” value in data set [1] was “inhibited”. In data set [2], the “effect on FAMIN's adenosine phosphorylase activity (levels of adenine and R-1-P from adenosine)” value was “intact”.

Consider `OC[C@H]1O[C@@H](n2cnc3c2NC=NC[C@H]3O)C[C@@H]1O` [pentostatin], for which the “effect on FAMIN's adenosine phosphorylase activity (levels of adenine and R-1-P from adenosine)” value in data set [2] is reported as “intact”.

In the case of `OC[C@H]1O[C@@H](n2cnc3c(O)ncnc32)[C@H](O)[C@@H]1O` [inosine], the “metabolised by FAMIN as pure substrate” value in data set [3] is “metabolised”.

As to `CSC[C@H]1O[C@@H](n2cnc3c(N)ncnc32)[C@H](O)[C@@H]1O` [MTA, S-methyl-5′-thioadenosine], the “metabolised by FAMIN as pure substrate” value in data set [3] is on record as “metabolised”.

For `C[C@H]1O[C@@H](n2cnc3c(N)ncnc32)[C@H](O)[C@@H]1O` [5′-deoxy-adenosine, 5′-deoxyadenosine], the “metabolised by FAMIN as pure substrate” value in data set [3] was “substrate of FAMIN”.

For `Nc1ncnc2c1ncn2[C@@H]1O[C@H](CO)[C@@H](O)[C@H]1O` [adenosine], the “metabolised by FAMIN as pure substrate” value in data set [3] was “consumed”.

In the case of `Nc1ncnc2c1ncn2[C@H]1C[C@H](O)[C@@H](CO)O1` [2′-deoxy-adenosine, 2′-deoxyadenosine], the “metabolised by FAMIN as pure substrate” value in data set [3] was “metabolised”.

For `Nc1nc2c(nc(N)n2[C@@H]2O[C@H](CO)[C@@H](O)[C@H]2O)c(=O)[nH]1` [8-aminoguanosine], in data set [2], the “effect on FAMIN's adenosine phosphorylase activity (levels of adenine and R-1-P from adenosine)” value is recorded as “did not affect”. Also, the “effect on FAMIN's purine nucleoside phosphorylase activity (generation of hypoxanthine and R-1-P from inosine)” value in data set [4] is listed as “inhibited”.

Turning to `Nc1nc2c(ncn2[C@@H]2O[C@H](CO)[C@@H](O)[C@H]2O)c(=O)[nH]1` [guanosine], the “metabolised by FAMIN as pure substrate” value in data set [3] is “metabolised”.

On to `Nc1ccn([C@@H]2O[C@H](CO)[C@@H](O)[C@H]2O)c(=O)n1` [cytidine], for which, in data set [3], the “metabolised by FAMIN as pure substrate” value was “No activity”.

`C[S+](CC[C@H](N)C(=O)[O-])C[C@H]1O[C@@H](n2cnc3c(N)ncnc32)[C@H](O)[C@@H]1O` (some centres unmarked) [SAM, S-adenosylmethionine]: the “metabolised by FAMIN as pure substrate” value in data set [3] is “not”.

B1: recombinant human FAMIN (Homo sapiens) (protein)
chain: MAEAVLIDLFGLKLNSQKNCHQTLLKTLNAVQYHHAAKAKFLCIMCCSNISYERDGEQDNCEIETSNGLSALLEEFEIVSCPSMAATLYTIKQKIDEKNLSSIKVIVPRHRKTLMKAFIDQLFTDVYNFEFEDLQVTFRGGLFKQSIEINVITAQELRGIQNEIETFLRSLPALRGKLTIITSSLIPDIFIHGFTTRTGGISYIPTLSSFNLFSSSKRRDPKVVVQENLRRLANAAGFNVEKFYRIKTHHSNDIWIMGRKEPDSYDGITTNQRGVTIAALGADCIPIVFADPVKKACGVAHAGWKGTLLGVAMATVNAMIAEYGCSLEDIVVVLGPSVGPCCFTLPRESAEAFHNLHPACVQLFDSPNPCIDIRKATRILLEQGGILPQNIQDQNQDLNLCTSCHPDKFFSHVRDGLNFGTQIGFISIKE
notes: twin Strep-tag (followed by short linker and TEV cleavage site) (N, cleaved yes); made in house; host or cells: HEK293T
As for B1, the Km turned out to be 36 µM in data set [5], 41 µM in data set [6], 11 µM in data set [7] and 1 µM in data set [8].
